{"source": "patent US8044071B2", "about": "“Method for reducing side effects of CB2 receptor agonist therapy using a combination of a selective CB2 receptor agonist and a selective CB1 receptor antagonist” (Abbott Laboratories, priority 2007, dated 2011)", "tested_on": "skin incision model of postoperative pain", "experiment": "Skin incision model of postoperative pain (tactile allodynia, von Frey)", "format": "in vivo", "settings": "rat, rimonabant 30 μmol/kg i.p., vehicle 15 min later", "source_text": "Adult male Sprague-Dawley rats (250-300 g body weight, Charles River Laboratories, Portage, Mich.) were used. Animal handling and experimental protocols were approved by the Institutional Animal Care and Use Committee (IACUC) at Abbott Laboratories. For all surgical procedures, animals were maintained under halothane anesthesia (4% to induce, 2% to maintain), and the incision sites were sterilized using a 10% povidone-iodine solution prior to and after surgeries.\nA skin incision model of postoperative pain was produced using the procedures described in Brennan et al., 1996, Pain, 64, 493. All rats were anesthetized with isoflurane delivered via a nose cone. Right hind paw incision was performed following sterilization procedures. The plantar aspect of the […] hind paw was placed through a hole in a sterile plastic drape. A 1-cm longitudinal incision was made through the skin and fascia of the plantar aspect of the hind paw, starting 0.5 cm from the proximal edge of the heel and extending towards the toes, the plantar muscle was elevated and incised longitudinally leaving the muscle origin and insertion points intact. The skin was then closed with two mattress sutures (5-0 nylon). After surgery, animals were then allowed to recover for 2 hours, at which time tactile allodynia was assessed as described below. To evaluate the anti-nociceptive effects, animals were i.p. administered vehicle or test compound 90 minutes following skin incision and tactile allodynia was typically assessed 30 minutes after compound administration.\nTactile allodynia was measured using calibrated von Frey filaments (Stoelting, Wood Dale, Ill.) as described in Chaplan, S. R., F. W. Bach, J. W. Porgrel, J. M. Chung and T. L. Yaksh, 1994, Quantitative assessment of tactile allodynia in the rat paw, J. Neurosci. Methods, 53, 55. Rats were placed into inverted individual plastic cage (20×12.5×20 cm) on top of a suspended wire mesh grid, and acclimated to the test chambers for 20 minutes. The von Frey filaments were applied perpendicularly from underneath the cage through openings in the wire mesh floor directly to an area within 1-3 mm (immediately adjacent) of the incision, and then held in this position for approximately 8 seconds with enough force to cause a slight bend in the filament. Positive responses included an abrupt withdrawal of the hind paw from the stimulus, or flinching behavior immediately following removal of the stimulus. A 50% withdrawal threshold was determined using an up-down procedure as described in Dixon, W. J., 1980, Efficient analysis of experimental observations, Ann. Rev. Pharmacol. Toxicol., 20, 441. The effect on paw withdrawal latency of test compounds compared to vehicle control represents the ability of the test compound to reduce allodynia. An increase in the paw withdrawal latency represents an anti-allodynic effect (i.e., a decrease in pain).\nUsing the skin incisional model of postoperative pain, the effects of compound A, CB2 agonist (Z)—N-(5-tert-butyl-3-butylthiazol-2(3H)-ylidene)-5-chloro-2-methoxybenzamide, on allodynia was assessed two hours after surgery.\nUsing the skin incisional model of postoperative pain, the effects of CB2 agonist A were evaluated after the administration of vehicle or the CB1 antagonist rimonabant. This effect was compared with the administration of vehicle after the administration of vehicle or the CB1 antagonist rimonabant. A first dose, consisting of CB1 antagonist rimonabant (30 μmol/kg i.p.) or a vehicle (5% DMSO/PEG), was administered 15 minutes before a second dose, consisting of administration of CB2 agonist A (30 μmol/kg i.p.) or vehicle. Allodynia testing was conducted 30 minutes after administration of the second dose, either CB2 agonist A or vehicle.", "data": [{"smiles": "Cc1c(C(=O)NN2CCCCC2)nn(-c2ccc(Cl)cc2Cl)c1-c1ccc(Cl)cc1", "note": "[rimonabant, 5-(4-chlorophenyl)-1-(2,4-dichlorophenyl)-4-methyl-N-(piperidin-1-yl)-1H-pyrazole-3-carboxamide, reference compound]", "values": [{"measurement": "tactile allodynia, rimonabant followed by vehicle", "result": "did not ameliorate the tactile allodynia"}]}]}
